Here are results for two molecules from article PMC10341805, “Positive Allosteric Modulator of SERCA Pump NDC-1173 Exerts Beneficial Effects in Mouse Model of Alzheimer’s Disease” (International Journal of Molecular Sciences, 2023).

Usually AUC stands for concentration integrated over time. Read a low AUC as low exposure. By Cmax is commonly meant the peak of the concentration-time curve. One may read the bioavailability as dose-corrected exposure relative to a reference, in per cent.

Read-outs that look alike come from different tables or passages of the source.

The test system of data set [1] is APP/PS1 mice. In words: Ca2+ imaging in APP/PS1 mice. Set-up: species or system mouse.
For data set [2], the system named is APP/PS1 mice. In words: Object recognition task. The format is in vivo, mouse. Conditions: 30 mg/kg oral gavage 3 times per week for 8 weeks, test 24 h after training. The protocol: (§1) To evaluate the effects of NUCC-0226446, NUCC-0226614, NUCC-0226646, and NDC-1173 on cognitive readouts in the AD mouse model, we treated APP/PS1 male and female mice with vehicle (10%DMSO/10%Tween80 in water) or SERCA PAMs (30 mg/kg) via oral gavage three times per week for 8 weeks, starting at 6 months of age. Open-field, object-recognition, and water maze assays were performed following treatment with 8-month-old mice. To test for locomotor activity changes in response to SERCA PAMs treatment in APP/PS1, we used the open-field test. The results obtained with NUCC-0226446, NUCC-0226614, NUCC-0226646 are shown in Supplementary Figure S1 and results with NDC-1173 are shown in Figure 3. […] There was a significant sex difference in the open field (F(1,27) = […]), but there was no sex by treatment interaction found.
(§2) Vehicle or NDC 1173 was administered via oral gavage 3 times per week for 8 weeks at a dose of 30 mg/kg in a vehicle containing 10%DMSO/10%Tween80 in water at a 3 mg/mL concentration. […]
The object recognition task (OR) was performed as previously described. […] Interaction was determined by the length of time the mouse’s nose was within 1 cm of a tightly drawn zone around each object. […] Time spent interacting with each object was then measured using Ethovision XT software (Version 15). […]

For a further data set, the system named is Na/K-ATPase. In words: Selectivity test on Na/K-ATPase. The following applies: selectivity for SERCA. The format is biochemical.
Data set [3] is described as follows: Pharmacokinetics in CD-1 mice (plasma and brain). In kind it is in vivo, mouse. The protocol:
Pharmacokinetics of NDC-1173 were assessed in CD-1 mice. The compound was formulated at 1 mg/mL in DMSO/Tween 80/water (10/10/80, vol/vol/vol) and dosed at 2 mg/kg intravenously (i.v.) or 10 mg/kg via oral gavage (P.O.) in triplicate. Blood was drawn at 0.25 h, 0.5 h, 1 h, 2 h, 4 h, 8 h, and 24 h into EDTA-containing tubes, and plasma was harvested via centrifugation. Plasma (10 μL) containing 50% acetonitrile in water (5 μL) was added to 200 µL of ACN containing an internal standard. The samples were vortexed for 30 s. After centrifugation at 4 °C and 4000 rpm for 15 min, the supernatant was diluted 3 times with water. Then, 20 µL of diluted supernatant was injected into the LC/MS/MS system for quantitative analysis. The samples were injected onto an Agilent ZORBAX XDB-Phenyl 5 μ column (50 × 2.10 mm). Mobile Phase A was water with 0.1% formic acid. Mobile Phase B was acetonitrile with 0.1% formic acid. Separation was achieved using a gradient of 70% A/30% B to 0% A/100% B over 2.10 min. A Shimadzu LCMS-8050 equipped with a turbo ion spray source was used for all analytical measurements. Data were fit using WinNonLin https://www.certara.com/software/phoenix-winnonlin/, accessed on 1 May 2023.

The subject of data set [4] is X-box binding protein 1 spliced variant (XBP1spl). In words: qPCR of ER-stress marker XBP1spl mRNA in hippocampus of treated APP/PS1 mice. In kind it is in vivo, mouse. The following applies: 30 mg/kg oral gavage 3 times per week for 8 weeks, vs untreated APP/PS1, normalized to Cyclophilin, mean ± SD. The text has this: (§3) As previously established in Alzheimer’s disease (AD) research, ER stress is an apparent consequence of protein misfolding within AD pathophysiology. In response to this ER stress, cells activate a group of signaling pathways known as the unfolded protein response (UPR) that aims to restore ER function so the cell may survive. […] We examined the mRNA expression levels of these ER-stress markers in the hippocampus of APP/PS1 mice treated with NUCC-0226446, NUCC-0226614, NUCC-0226646, and NDC-1173 compounds compared to untreated APP/PS1 mice utilizing real-time quantitative PCR using primer sets indicated in Table 2. There was significant reduction (p = 0.0002) in the ER-stress marker, Chop, after treatment with NDC-1173 compared to untreated APP/PS1 mice (n = 9–11) (Figure 4, Table 3). […]
(§4) At 10 months of age, mice were rapidly decapitated, and the entire hippocampus was dissected and snap-frozen using liquid nitrogen. […] Total RNA concentration and purity was then measured using a NanoDrop spectrophotometer. […] Data were exported from the RT PCR machine into an excel worksheet. %CVs were calculated between triplicate well CT values to rule out technical outliers. […] Relative expression was then analyzed following the comparative CT method ( 2^−∆∆CT method).
Background: Real-time PCR tracks product formation cycle by cycle.

In data set [5] the test system is C/EBP homologous protein (CHOP/Ddit3). In words: qPCR of ER-stress marker CHOP mRNA in hippocampus of treated APP/PS1 mice. The format is in vivo, mouse. The following applies: 30 mg/kg oral gavage 3 times per week for 8 weeks, vs untreated APP/PS1, normalized to Cyclophilin, mean ± SD.
Excerpt: as §3, §4

The test system of data set [6] is binding immunoglobulin protein (BiP/Grp78). In words: qPCR of ER-stress marker BiP mRNA in hippocampus of treated APP/PS1 mice. Conditions: 30 mg/kg oral gavage 3 times per week for 8 weeks, vs untreated APP/PS1, normalized to Cyclophilin, mean ± SD. The format is in vivo, mouse.
Excerpt: as §3, §4

The test system of data set [7] is APP/PS1 mice. In words: Tolerability during 8 weeks of administration. The format is in vivo, mouse. The following applies: 30 mg/kg oral gavage 3 times per week for 8 weeks. How it is done:
Vehicle or NDC 1173 was administered via oral gavage 3 times per week for 8 weeks at a dose of 30 mg/kg in a vehicle containing 10%DMSO/10%Tween80 in water at a 3 mg/mL concentration. The dose was chosen so that the drug would be on board while the first signs of amyloid plaques appear (6 mos) and before the time the disease had fully progressed. We chose to administer the drug 3 times per week to cause minimal stress to the mouse.

A further data set has as its system L-type Ca channel. In words: Selectivity test on L-type Ca channel. The format is biochemical. The following applies: selectivity for SERCA.
For data set [8], the system named is activating transcription factor 4 (ATF4). In words: qPCR of ER-stress marker ATF4 mRNA in hippocampus of treated APP/PS1 mice. Conditions: 30 mg/kg oral gavage 3 times per week for 8 weeks, vs untreated APP/PS1, normalized to Cyclophilin, mean ± SD. The format is in vivo, mouse.
Excerpt: as §3, §4

In a further data set the test system is ryanodine receptor. In words: Selectivity test on ryanodine receptor. The following applies: selectivity for SERCA. In kind it is biochemical.
In data set [9] the test system is activating transcription factor 6 (ATF6). In words: qPCR of ER-stress marker ATF6 mRNA in hippocampus of treated APP/PS1 mice. The format is in vivo, mouse. The following applies: 30 mg/kg oral gavage 3 times per week for 8 weeks, vs untreated APP/PS1, normalized to Cyclophilin, mean ± SD.
Excerpt: as §3, §4

For data set [10], the system named is APP/PS1 mice. In words: Morris water maze (training and probe trial). Conditions: 30 mg/kg oral gavage 3 times per week for 8 weeks. In kind it is in vivo, mouse. The protocol:
as §1, §2
The water maze consisted of 3 phases pre-training, training, and probe trial. […] Ethovision XT (Version 15) tracking software recorded the latency to the platform. […] During the probe trial, the platform was not present within the pool and the search pattern of the mouse is measured. […]

Where [11] appears, read: CD-1, mouse, plasma, oral administration 10 mg/kg.

`Cc1ccc2cccc(NC(=O)c3ccc(OC(C)C)cc3)c2n1` [CDN-1163]: the “Effect on Ca2+ homeostasis” value with APP/PS1 mice [1] is on record as “restores normal Ca^2+ homeostasis”.

On to `COc1c(C)cccc1C(=O)Nc1cccc2ccc(C)nc12` [NDC-1173, 2-methoxy-3-methyl-N-(2-methylquinolin-8-yl)benzamide], for which the “Object memory (time spent with novel object) vs vehicle” value with APP/PS1 mice [2] is recorded as “significant increase in time spent with the novel object”. Moreover, the “Functional effect on Na/K-ATPase” value in the data set with Na/K-ATPase is listed as “no significant functional effects”. The half-life in [3] (CD-1, mouse, brain, oral administration 10 mg/kg, read-out: Brain t1/2 (converted)) is 1.1 h. Besides, the Kp in data set [3] (CD-1, mouse, brain/plasma, oral administration 10 mg/kg, read-out: Brain/plasma ratio) came to 2.8. For the same molecule, in data set [3] (setting [11]), the exposure (AUC) worked out at 375 ng·h/mL and the Cmax was 1250 nM. Further, the half-life in data set [3] (CD-1, mouse, plasma, oral administration 10 mg/kg, read-out: Plasma t1/2 (converted)) is 0.9 h. The bioavailability in [3] (CD-1, mouse, plasma, oral, 10 mg/kg P.O. vs 2 mg/kg i.v.) was 25.6%. Also, the “Brain concentration at 2 h” value in data set [3] (oral administration 10 mg/kg) is 2500 nM. Further, in data set [4], the “Fold-change of XBP1spl mRNA expression” value was determined as 0.72 ± 0.577. Also, in data set [5], the “Fold-change of CHOP mRNA expression” value worked out at 0.52 ± 0.195. Further, the “Fold-change of BiP mRNA expression” value in data set [6] is listed as 0.74 ± 0.401. Also, in the data set on APP/PS1 mice [7], the “Adverse effects or weight loss” value is “no adverse effects or weight loss”. Also, the “Functional effect on L-type Ca channel” value with L-type Ca channel is on record as “no significant functional effects”. Also, in data set [8], the “Fold-change of ATF4 mRNA expression” value is reported as 1.17 ± 0.496. Further, in the data set on ryanodine receptor, the “Functional effect on ryanodine receptor” value is recorded as “no significant functional effects”. Further, in data set [9], the “Fold-change of ATF6 mRNA expression” value was found to be 0.79 ± 0.327. In addition, the “Spatial learning in water maze training (4 days) vs vehicle” value in the data set with APP/PS1 mice [10] is reported as “did not have better performance in spatial learning”. Besides, the “Spatial memory in water maze probe trial (time in target quadrant) vs vehicle” value with APP/PS1 mice [10] (24 h after last training) is “spent more time in the quadrant where the escape platform was located”.
